Among the test systems are Escherichia coli JM109; Pseudomonas aeruginosa; Staphylococcus aureus; Bacillus subtilis; Escherichia coli; Klebsiella pneumoniae; Micrococcus luteus; Proteus mirabilis; Salmonella typhimurium; Shigella dysenteriae; Bacillus subtilis 168; Escherichia coli B.
Assay in all cases: ≥ marks a high value that may be exact or a test limit, other limits are often not marked, values filed in µg/mL are converted to µM
In assay [1] the test system is Staphylococcus aureus ATCC 6538P.
In assay [2] the test system is Staphylococcus epidermidis.
Assay [3] relates to Enterococcus faecalis NCTC 12697.
The subject of assay [4] is Candida albicans F7-39/IDE99.
Assay [5] concerns Bacillus subtilis ATCC 6633.
Assay [6] concerns Enterococcus faecalis ATCC 29212.
For assay [7], the system named is Klebsiella pneumoniae ATCC 13883.
Assay [8] has as its system Pseudomonas aeruginosa ATCC 27853.
The test system of assay [9] is Salmonella enterica subsp. enterica serovar Typhimurium ATCC 14028.
Assay [10] concerns Staphylococcus aureus ATCC 25923.
For assay [11], the system named is Streptococcus pyogenes ATCC 19615.

≈ marks a conversion by molar mass, not a printed value.

For orientation: MIC means the lowest concentration found to suppress growth. Lower therefore signals greater potency. With `CC[C@H](C)[C@H](NC(=O)[C@H](C)NC(=O)[C@H](CC(C)C)NC(=O)[C@H](CC(C)C)NC(=O)[C@H](Cc1c[nH]c2ccccc12)NC(=O)[C@H](C)N)C(=O)N[C@@H](CCCN=C(N)N)C(=O)N[C@@H](CCCN=C(N)N)C(=O)N[C@@H](CCCN=C(N)N)C(N)=O` [AWLLAIRRR], the minimum inhibitory concentration (MIC) in the assay on Escherichia coli JM109 was determined as 2.6 µM (≈ 3 µg/mL); against Pseudomonas aeruginosa, 3.46 µM (≈ 4 µg/mL); in assay [1], 1.73 µM (≈ 2 µg/mL); in the assay on Staphylococcus aureus, 17.3 µM (≈ 20 µg/mL).

Regarding `CC(C)C[C@H](NC(=O)[C@H](C)NC(=O)CNC(=O)[C@H](CC(C)C)NC(=O)[C@@H](N)Cc1ccccc1)C(=O)N[C@@H](Cc1ccccc1)C(=O)N[C@@H](CCCCN)C(=O)N[C@@H](CC(C)C)C(=O)N[C@@H](C)C(=O)N[C@@H](CO)C(=O)N[C@@H](CCCCN)C(=O)O` [FLGALFKLASK], the MIC with Bacillus subtilis is 20.9 µM (≈ 25 µg/mL); against Escherichia coli, 83.7 µM (≈ 100 µg/mL); in the assay with Klebsiella pneumoniae, 167 µM (≈ 200 µg/mL); against Micrococcus luteus, 10.5 µM (≈ 12.5 µg/mL); in the assay on Proteus mirabilis, no less than 167 µM; against Pseudomonas aeruginosa it was 167 µM (≈ 200 µg/mL). Further, the minimal inhibitory concentration (MIC) is no less than 167 µM against Salmonella typhimurium, no less than 83.7 µM with Shigella dysenteriae, 20.9 µM (≈ 25 µg/mL) against Staphylococcus aureus and no less than 83.7 µM in assay [2].

In the case of `CC(C)C[C@H](NC(=O)[C@H](Cc1ccccc1)NC(=O)CNC(=O)[C@H](CC(C)C)NC(=O)[C@@H](N)Cc1ccccc1)C(=O)N[C@@H](Cc1ccccc1)C(=O)N[C@@H](CCCCN)C(=O)N[C@H](C(=O)N[C@@H](C)C(=O)N[C@@H](CO)C(=O)N[C@@H](CCCCN)C(=O)O)C(C)C` [FLGFLFKVASK], the MIC was 9.95 µM (≈ 12.5 µg/mL) against Bacillus subtilis; 79.6 µM (≈ 100 µg/mL) against Escherichia coli; 79.6 µM (≈ 100 µg/mL) in the assay on Klebsiella pneumoniae; 9.95 µM (≈ 12.5 µg/mL) with Micrococcus luteus; no less than 159 µM against Proteus mirabilis; greater than 159 µM in the assay with Pseudomonas aeruginosa. Further, the minimum inhibitory concentration (MIC) in the assay with Salmonella typhimurium is no less than 159 µM; against Shigella dysenteriae it was no less than 79.6 µM; in the assay with Staphylococcus aureus, 9.95 µM (≈ 12.5 µg/mL); in assay [2] it was no less than 39.8 µM.

`CC(C)C[C@H](NC(=O)[C@H](Cc1c[nH]c2ccccc12)NC(=O)CNC(=O)[C@H](CC(C)C)NC(=O)[C@@H](N)Cc1ccccc1)C(=O)N[C@@H](Cc1ccccc1)C(=O)N[C@@H](CCCCN)C(=O)N[C@H](C(=O)N[C@@H](C)C(=O)N[C@@H](CO)C(=O)N[C@@H](CCCCN)C(=O)O)C(C)C` [FLGWLFKVASK]: the MIC is 4.86 µM (≈ 6.3 µg/mL) against Bacillus subtilis; 19.3 µM (≈ 25 µg/mL) in the assay with Escherichia coli; 9.65 µM (≈ 12.5 µg/mL) with Klebsiella pneumoniae; 19.3 µM (≈ 25 µg/mL) in the assay with Micrococcus luteus; no less than 154 µM in the assay with Proteus mirabilis; 77.2 µM (≈ 100 µg/mL) with Pseudomonas aeruginosa. Also, the MIC with Salmonella typhimurium was no less than 38.6 µM; with Shigella dysenteriae, 9.65 µM (≈ 12.5 µg/mL); in the assay with Staphylococcus aureus, 2.39 µM (≈ 3.1 µg/mL); in assay [2], 9.65 µM (≈ 12.5 µg/mL).

In assay [3], `CC(C)C[C@H](NC(=O)[C@H](C)NC(=O)[C@H](Cc1c[nH]c2ccccc12)NC(=O)[C@H](CCCCN)NC(=O)[C@@H]1CCCN1C(=O)[C@H](CC(C)C)NC(=O)[C@@H](N)Cc1ccccc1)C(=O)N[C@@H](CCCCN)C(=O)N[C@@H](Cc1c[nH]c2ccccc12)C(=O)N[C@@H](C)C(=O)N[C@@H](C)C(=O)N[C@@H](CCCCN)C(N)=O` [FLPKWALKWAAK] showed a minimal inhibitory concentration (MIC) of no less than 512 µM.

On to `CSCC[C@H](NC(=O)[C@H](CCCCN)NC(=O)[C@H](Cc1ccccc1)NC(=O)CN)C(=O)N[C@@H](C)C(=O)N[C@@H](CC(C)C)C(=O)N[C@@H](CCCCN)C(=O)N[C@@H](CC(C)C)C(=O)N[C@@H](CC(C)C)C(=O)N[C@@H](CCCCN)C(=O)N[C@@H](CCCCN)C(=O)N[C@H](C(=O)N[C@@H](CC(C)C)C(N)=O)C(C)C` [GFKMALKLLKKVL], for which the minimum inhibitory concentration (MIC) in the assay with Bacillus subtilis 168 came out at 1.3 µM (≈ 1.93 µg/mL); in [4], 4.3 µM (≈ 6.4 µg/mL); in the assay on Escherichia coli B, 2.3 µM (≈ 3.42 µg/mL); against Pseudomonas aeruginosa, 11.3 µM (≈ 16.8 µg/mL); against Staphylococcus aureus it was 5 µM (≈ 7.44 µg/mL).

As to `CC[C@H](C)[C@H](NC(=O)[C@H](CC(C)C)NC(=O)[C@H](Cc1cnc[nH]1)NC(=O)CNC(=O)[C@H](CC(C)C)NC(=O)[C@@H](NC(=O)[C@H](CCCCN)NC(=O)[C@H](CCCCN)NC(=O)[C@H](Cc1c[nH]c2ccccc12)NC(=O)[C@H](CCCCN)NC(=O)CN)[C@@H](C)CC)C(=O)N[C@@H](CCCN=C(N)N)C(N)=O` [GKWKKILGHLIR], the MIC was determined as 1.2 µM (≈ 1.74 µg/mL) against Bacillus subtilis 168; 5.3 µM (≈ 7.67 µg/mL) in assay [4]; 2.7 µM (≈ 3.91 µg/mL) against Escherichia coli B; 30 µM (≈ 43.4 µg/mL) in the assay on Pseudomonas aeruginosa; 28.3 µM (≈ 41 µg/mL) against Staphylococcus aureus.

On to `CC[C@H](C)[C@H](NC(=O)[C@H](Cc1cnc[nH]1)NC(=O)[C@H](CCCCN)NC(=O)[C@H](CC(C)C)NC(=O)[C@H](CC(C)C)NC(=O)[C@H](CO)NC(=O)[C@H](CCSC)NC(=O)[C@H](Cc1c[nH]c2ccccc12)NC(=O)[C@H](CCCCN)NC(=O)CN)C(=O)N[C@@H](CC(C)C)C(=O)N[C@@H](CCCCN)C(N)=O` [GKWMSLLKHILK], for which the minimum inhibitory concentration (MIC) with Bacillus subtilis 168 came out at 1 µM (≈ 1.45 µg/mL); in assay [4], 6.6 µM (≈ 9.59 µg/mL); in the assay on Escherichia coli B, 2.5 µM (≈ 3.63 µg/mL); against Pseudomonas aeruginosa, 42.1 µM (≈ 61.2 µg/mL); with Staphylococcus aureus it was 8.1 µM (≈ 11.8 µg/mL).

Consider `CC[C@H](C)[C@H](N)C(=O)N[C@@H](CC(N)=O)C(=O)N[C@@H](Cc1c[nH]c2ccccc12)C(=O)N[C@@H](CCCCN)C(=O)N[C@@H](CCCCN)C(=O)N[C@H](C(=O)N[C@@H](C)C(=O)N[C@@H](CCC(=O)O)C(=O)N[C@H](C(=O)NCC(=O)N[C@@H](CCCCN)C(=O)N[C@@H](CCC(N)=O)C(=O)N[C@H](C(=O)N[C@@H](CC(C)C)C(=O)N[C@@H](CO)C(=O)N[C@@H](C)C(=O)N[C@@H](CC(C)C)C(N)=O)C(C)C)[C@@H](C)CC)[C@@H](C)CC` [INWKKIAEIGKQVLSAL], for which the MIC in assay [5] turned out to be 1.05 µM (≈ 2 µg/mL); in the assay on Escherichia coli JM109, 4.19 µM (≈ 8 µg/mL).

As for `CC(C)C[C@H](NC(=O)[C@@H](NC(=O)[C@H](CCCCN)NC(=O)[C@H](CO)NC(=O)[C@H](C)NC(=O)[C@@H](NC(=O)[C@H](CCCCN)NC(=O)[C@H](Cc1ccccc1)NC(=O)[C@@H](N)CC(C)C)C(C)C)C(C)C)C(=O)N1CCC[C@H]1C(=O)N[C@@H](CO)C(=O)N[C@H](C(=O)N[C@@H](CCCCN)C(=O)O)C(C)C` [LFKVASKVLPSVK], the minimum inhibitory concentration (MIC) against Bacillus subtilis was no less than 141 µM; against Escherichia coli, greater than 141 µM; in the assay on Klebsiella pneumoniae, greater than 141 µM; in the assay on Micrococcus luteus it was no less than 141 µM; against Proteus mirabilis it was no less than 141 µM; in the assay on Pseudomonas aeruginosa, greater than 141 µM. For the same compound, the MIC in the assay with Salmonella typhimurium is no less than 141 µM; with Shigella dysenteriae, no less than 141 µM; with Staphylococcus aureus it was greater than 141 µM; in assay [2], no less than 141 µM.

Regarding `CC[C@H](C)[C@H](NC(=O)[C@@H]1CCCN1C(=O)[C@H](CC(C)C)NC(=O)[C@@H](N)CC(C)C)C(=O)N[C@H](C(=O)NCC(=O)N[C@@H](CC(N)=O)C(=O)N[C@@H](CC(C)C)C(=O)N[C@@H](CC(C)C)C(=O)N[C@@H](CCCCN)C(=O)N[C@@H](CO)C(=O)N[C@@H](CC(C)C)C(=O)N[C@@H](CC(C)C)C(=O)NCC(=O)N[C@@H](C)C(=O)N[C@@H](CCCCN)C(=O)N[C@@H](CCCN=C(N)N)C(=O)N[C@@H](CCCCN)C(=O)N[C@@H](CCCN=C(N)N)C(=O)N[C@@H](C)C(=O)NCC(N)=O)C(C)C` [LLPIVGNLLKSLLGAKRKRAG], the minimum inhibitory concentration (MIC) in the assay on Bacillus subtilis is no less than 100 µM; in assay [6], greater than 200 µM; with Escherichia coli, 100 µM (≈ 222 µg/mL); in [7] it was no less than 200 µM; in [8] it was 100 µM (≈ 222 µg/mL); in assay [9], greater than 200 µM. For the same compound, the minimum inhibitory concentration (MIC) in assay [10] is 100 µM (≈ 222 µg/mL); in assay [11] it was no less than 200 µM.

For `CC(C)C[C@H](NC(=O)[C@H](Cc1c[nH]c2ccccc12)NC(=O)[C@H](CCC(N)=O)NC(=O)[C@@H](N)C(C)C)C(=O)N[C@@H](CCC(=O)O)C(=O)N[C@@H](CCC(N)=O)C(=O)N[C@@H](CCC(N)=O)C(=O)N[C@H](C(=O)N[C@@H](C)C(=O)N[C@@H](CCCCN)C(=O)N[C@@H](CCCN=C(N)N)C(=O)N[C@@H](CCCN=C(N)N)C(=O)N[C@H](C(=O)N[C@@H](CCCCN)C(=O)N[C@@H](CCCN=C(N)N)C(=O)O)[C@@H](C)O)C(C)C` [VQWLEQQVAKRRTKR], the MIC against Bacillus subtilis was no less than 100 µM; in assay [6], greater than 100 µM; against Escherichia coli, greater than 100 µM; in assay [7] it was no less than 100 µM; in assay [8], greater than 100 µM; in assay [9], greater than 100 µM. For the same compound, the minimum inhibitory concentration (MIC) is greater than 100 µM in assay [10] and no less than 100 µM in assay [11].

For the origin of these results see DBAASP.
